One assay deals with JAK2 (Homo sapiens (Human), UniProt O60674). As to the kind of experiment: Inhibition of enzymatic JAK2 kinase activity (TR-FRET). The format is biochemical. An excerpt: The objective of this assay was to screen compounds in a Time-resolved fluorescence resonance energy transfer (TR-FRET) Enzymatic assay method for their potential to inhibit JAK2 (Janus kinase) activity.
TR-FRET assays are homogeneous proximity assays where Eu-labeled antiphosphotyrosine antibody binds to the phosphorylated substrates labeled with Ulight fluorescence acceptor. Eu can transfer energy to Ulight accepter in the complex and the interaction of two dye-labeled binding partners is detected by the energy transfer between a donor and an acceptor dye, and the subsequent light emission by the acceptor dye. The intensity of the light emission is proportional to the level of Ulight peptide phosphorylation.
Two μL of 10% DMSO in blank, substrate control and positive control wells and 2 μL of test compound in test wells was added. Thirteen μL of assay buffer in blank and substrate control wells and 13 μL of Enzyme buffer mix in positive and test wells was added. The reaction mixture was incubated for 30 minutes at RT on a plate shaker. […] The reaction plate was incubated for 60 minutes at RT on a plate shaker. The reaction was stopped by adding 40 mM EDTA (10 μL) in buffer. Ten μL of antibody was added to all the wells. The plate was read in a Wallac® 1420 Multilabel Counter Victor 3 instrument (Ex: 340 nm Em: 615 & 665 nm) The following calculations were made:
F@ 665 Value-Buffer blank […]
For orientation: Time-resolved FRET reads energy transfer from a long-lived donor to a nearby acceptor.

For the next assay, the system named is RBL2H3 cells. Description: Degranulation assay: β-hexosaminidase release during immune complex mediated degranulation. The format is cell-based, Rat. As to the method: The objective of this assay was to examine by Fluorescence method the effect of compounds on β-hexosaminidase release during immune complex mediated degranulation in RBL2H3 cells. Compounds were tested for their ability to inhibit the ability of this immune complex to mediate β-hexosaminidase release, in an enzyme assay with p-nitrophenyl-β-D-glucosaminide as substrate. […] Emission 460 nm). RBL2H3 cells were maintained in MEM complete media containing 10% FBS at 70%-80% confluence in a mammalian cell culture CO2 incubator with 5% CO2 at 37° C. 2×10^5 cells/well were plated in 1 mL of complete media and incubated for 5 hours for cell attachment. Complete media was replaced with 1 mL of serum free MEM media containing 1.2 μg/mL of anti-DNP rat IgE as sensitizing agent and further incubated overnight with 5% CO2 at 37° C. […] Cells were further stimulated with 5 μg/mL of DNP-BSA for 60 minutes. Plates were centrifuged for 5 minutes at 1000 rpm and 25 μL of culture supernatant was transferred from each assay well into a 96 well black coated plate. 25 μL β-NAG substrate was added to this mixture and incubated at room temperature for 30 minutes. The reaction was terminated with 100 μL of stop solution and fluorescence was monitored. (Excitation 355 nm; Emission 460 nm) See, Sanderson, (2010), Cellular Immunology, 262(1): 28-34 and Silverman, (2006) MCB, 26(5):1826-1838, which are incorporated herein by reference. The % release of β-Hexosaminidase for the test compound was calculated using the following formula: RBL2H3 cells were maintained in MEM complete media containing 10% FBS at 70-80% confluence in a mammalian cell culture CO2 incubator with 5% CO2 at 37° C. 5×10^4 cells/well were plated in 200 μL of complete media containing 0.3 μg/mL of anti-DNP rat IgE as sensitizing agent for 24 hours at 37° C. & 5% CO2. The following day, cells were washed twice with PIPES buffer for 10 minutes at 37° C. and replenished with serum free MEM media. […] After incubation with substrate, 150 μL of stop solution was added and fluorescence was monitored. […]

Assay [1] concerns the target Syk (356-635 amino acids)-catalytic domain (Homo sapiens (Human), UniProt P43405). Description: Inhibition of enzymatic Syk kinase activity (radiometric). It is filed as biochemical. An excerpt: The objective of this assay was to examine by radiometric method the ability of compounds to inhibit Syk kinase enzyme. Syk is capable of phosphorylating substrates such as VAV, LAT, SLP-76, which in turn activate MAPK, PLCγ signaling pathways. […] This in vitro assay tests the ability of syk to phosphorylate a substrate peptide in the presence of ATP. By using a radio-labeled form of ATP, it is possible to measure the amount of phosphorylation of the substrate. The enzyme transfers a radio-labeled phosphate group from γ32 P labeled ATP to pG4T. Briefly the enzyme was incubated with substrate, radio-labeled & cold ATP and substrate in buffer with or without compounds. At the end of the reaction, the reaction mixture was transferred on to a Multiscreen filter plate and unreacted γ^32P ATP was washed off. The filter plate was dried and the radioactivity was measured on a scintillation counter to estimate the incorporated radioactivity on the substrate. The percent inhibition of activity of the enzyme was calculated by comparing counts in the presence and absence of compounds. […] Microscint-O® reagent (100 μL, Perkin Elmer) was added to each well, the plate was sealed with Topseal®-A microplates and incubated for 10 minutes at room temperature at very low speed on rocker and the plate was read in the Topcount® NXL instrument.

Assay [2] deals with Collagen Induced Arthritis (CIA) in female Lewis rats. Description: In vivo chronic study: Collagen Induced Arthritis (CIA). Particulars: 0.5 mg/Kg. The arrangement: species or system rat. As to the method:
Female Lewis rats (8 per group, 6-8 weeks old) were immunized on day 1 with type II collagen (Immunization grade Bovine type II; Chondrex; Cat #20021) emulsified with Complete Freund's Adjuvant (Sigma; Cat # F5881) at a final concentration of 1.2 mg/mL). For the initial immunization, the animals were injected at the base of the tail with 300 μg of the cII (0.25 mL/rat). A booster injection of the same type II collagen emulsified with Incomplete Freund's Adjuvant (Sigma, Cat #F5506) (0.25 mL/rat) was given to the animals on day 8 at the base of the tail (100 μg). The final cII concentration in the booster was […]. […]
Edema: Paw volumes are measured by Plethysmometry for the animals before induction of CIA (Basal readings) and on Day 1, 3, 6 and 9 of dosing period. Both hind paw volumes were measured and edema was calculated by subtracting from the basal mean.
Arthritic score: Animals were scored for the symptoms of arthritis every day starting from Day of onset of disease till the end of the study. Both the hind paws were scored and the total scores were averaged and compared with control. […]
The percent inhibition of Edema was calculated with respect to control by the formula: […]
The percent inhibition of Arthritic score was calculated with respect to control by the formula: […]

The term IC50 denotes the point on the concentration scale where inhibition reaches its midpoint. Read a high IC50 as weaker potency in that assay. For orientation: inhibition means the drop in the measured response relative to a control, in per cent. Lower therefore signals little suppression. As a reminder, the EC50 is the concentration needed to bring the measured effect to its halfway point. Read a high EC50 as weaker potency.

Bounds are passed on as bounds.

JAK2, sequence (O60674 808-1132): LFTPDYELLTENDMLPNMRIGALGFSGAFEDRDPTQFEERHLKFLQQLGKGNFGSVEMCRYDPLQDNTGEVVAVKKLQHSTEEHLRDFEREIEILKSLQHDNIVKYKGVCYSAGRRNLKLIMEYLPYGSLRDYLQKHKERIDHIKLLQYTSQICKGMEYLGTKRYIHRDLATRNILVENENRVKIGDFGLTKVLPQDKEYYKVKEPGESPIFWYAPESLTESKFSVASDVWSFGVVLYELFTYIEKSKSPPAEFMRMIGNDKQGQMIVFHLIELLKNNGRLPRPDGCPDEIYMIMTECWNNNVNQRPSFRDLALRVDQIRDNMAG

Consider `O=c1[nH]ncc2nc(N3CCCCCC3)nc(Nc3ccc(N4CCN(CCO)CC4)cc3)c12` [Example 190, 2-(azepan-1-yl)-4-((4-(4-(2-hydroxyethyl)piperazin-1-yl)-phenyl)amino)pyrimido[4,5-d]-pyridazin-5(6H)-one], for which the IC50 (against JAK2; in assay [1]) was less than 10 nM throughout. Further, the inhibition at 1 µM in the assay on RBL2H3 cells (Rattus norvegicus, RBL-2H3, 1 μM, Assay Protocol B (96 well format)) was 83%. In the assay with RBL2H3 cells (Rattus norvegicus, RBL-2H3, Assay Protocol B (96 well format)), this compound gave an EC50 of 21 nM.
In the case of `N=Cc1nc(N2CCCCCC2)nc(Nc2ccc(N3CCCC(CC(=O)O)C3)cc2)c1C(N)=O` (stereo not shown) [Example 232], in the assay with RBL2H3 cells (1 μM, Assay Protocol B (96 well format)), the “Degranulation % inhibition at 1 μM” value was found to be 0%.
Consider `CN(Cc1cnc2nc(N)nc(N)c2n1)c1ccc(C(=O)N[C@@H](CCC(=O)O)C(=O)O)cc1` [Methotrexate, methotrexate], for which the “Percent inhibition of Edema (Day 9 of dosing)” value in assay [2] (Day 9 of dosing) is 6%. Besides, the “Percent inhibition of Arthritic score (Day 10 of dosing)” value in assay [2] (Day 10 of dosing) is reported as 15%.

For the origin of these results see US10647720B2 (Asana Biosciences, LLC, priority 2011, dated 2020).
